Laboratory results taken from patent US20250188118A1, “LIQUID PHASE PEPTIDE SYNTHESIS METHODS” (AMGEN INC., priority 2023, published 2025).
Values after ≈ are worked out from the molar mass of the structure shown.

Columns and labels:
[1] = C18 tag solubility in screening solvents (slurry agitated overnight, supernatant assayed by calibrated HPLC); type: physicochemical; conditions: organic solvent or mixture, thermodynamic from solid, 20 °C
Experimental: Provided in this section is an analysis of the solubility of the C18 tag in various organic solvents. All starting materials are either commercially available from Sigma-Aldrich, Oakwood Chemicals, ChemPep Inc., CombiBlocks, or similar vendors, unless otherwise noted, or known in the art and may be synthesized by employing known procedures using ordinary skill.
(3,4,5-trioctadecoxyphenyl)methanol (200 mg) was measured out into a series of 1-dram vials. 1 mL of a screening solvent was added to its corresponding 1-dram vial. The slurry vials were placed on a shaker plate set to 20° C. and agitated overnight. Following agitation, the slurries were transferred to centrifuge tubes and the supernatant was isolated. 100 μL of the isolated supernatant was diluted in 10 mL THF to provides solutions for HPLC analysis using the Agilent 1290 Infinity II system with a Cortecs UPLC C8 1.6 μm 2, 1×150 mm column with a dilution factor of 100. A typical run through the HPLC instrument used a column temperature of 30° C.; an injection volume of 1 μL; a method length of 15 min; a flow rate of 0.3 mL/min; UV Detection: 220 nm; Mobile Phase A: 0.1% TFA in water; Mobile Phase B: 0.1% TFA in ACN; HPLC Gradient: 0 min—95:5 (A:B), 10 min—5:95 (A:B), 13 min—95:5 (A:B). The sample solutions were assayed on a calibrated LC system, and the corresponding C18 tag concentrations are reported below.

[2] = in water at 23° C.; cited from earlier work

SMILES: CCCCCCCCCCCCCCCCCCOc1cc(CO)cc(OCCCCCCCCCCCCCCCCCC)c1OCCCCCCCCCCCCCCCCCC [C18 Tag, (3,4,5-trioctadecoxyphenyl)methanol]
- solubility ([1]; solvent 2-Me-THF): 172 mg/mL (≈ 189 mM)
- solubility ([1]; solvent CPME): 6.8 mg/mL (≈ 7.44 mM)
- solubility ([1]; solvent Heptanes): 1.63 mg/mL (≈ 1.78 mM)
- solubility ([1]; solvent MTBE): 43.8 mg/mL (≈ 48 mM)
- solubility ([1]; solvent PhMe): 57.8 mg/mL (≈ 63.3 mM)
- solubility ([1]; solvent THF): ≥ 200 mg/mL
- solubility ([1]; solvent iPrOAc): 1.81 mg/mL (≈ 1.98 mM)

SMILES: CC1CCCO1 (centres unmarked) [Example 2-MeTHF, 2-methyltetrahydrofuran]
- miscibility in water [2]: 14 g/100 g
